The values that follow come from ChEMBL document CHEMBL1201862, “PubChem BioAssay data set” (2004).

Active and inactive are the calls of the source. Bounds are passed on as bounds.

In assay [1] the target is Nuclear receptor subfamily 0 group B member 1 (Homo sapiens, UniProt P51843). The assay is described as follows: Luminescence-based cell-based high throughput dose response assay for inhibitors of the orphan nuclear receptor subfamily 0, group B, member 1 (DAX1; NR0B1). [Related pubchem assays (depositor defined):AID504766, AID504790]. The assay is classed as functional.
Sequence of Nuclear receptor subfamily 0 group B member 1 (P51843 whole entry): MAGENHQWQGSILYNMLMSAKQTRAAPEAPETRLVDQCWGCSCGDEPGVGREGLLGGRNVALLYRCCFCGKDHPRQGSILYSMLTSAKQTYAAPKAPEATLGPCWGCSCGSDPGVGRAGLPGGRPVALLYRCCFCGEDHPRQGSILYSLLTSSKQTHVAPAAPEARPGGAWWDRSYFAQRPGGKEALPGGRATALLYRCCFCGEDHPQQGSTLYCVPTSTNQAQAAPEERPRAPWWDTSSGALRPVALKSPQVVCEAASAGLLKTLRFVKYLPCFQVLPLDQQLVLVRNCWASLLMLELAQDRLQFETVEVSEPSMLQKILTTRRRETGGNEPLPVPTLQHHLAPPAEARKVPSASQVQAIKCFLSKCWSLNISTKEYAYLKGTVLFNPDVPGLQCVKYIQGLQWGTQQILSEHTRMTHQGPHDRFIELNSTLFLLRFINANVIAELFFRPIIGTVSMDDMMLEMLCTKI

For assay [2], the system named is HEK293. As to the kind of experiment: cells. The settings on record: Homo sapiens. The assay is classed as functional, cell-based.
The subject of assay [3] is HEK293. The assay is described as follows: cells. The note with it: Homo sapiens.
In the next assay the target is T1, Protein skinhead-1 (Caenorhabditis elegans, UniProt P34707).
T1 sequence (P34707 whole entry): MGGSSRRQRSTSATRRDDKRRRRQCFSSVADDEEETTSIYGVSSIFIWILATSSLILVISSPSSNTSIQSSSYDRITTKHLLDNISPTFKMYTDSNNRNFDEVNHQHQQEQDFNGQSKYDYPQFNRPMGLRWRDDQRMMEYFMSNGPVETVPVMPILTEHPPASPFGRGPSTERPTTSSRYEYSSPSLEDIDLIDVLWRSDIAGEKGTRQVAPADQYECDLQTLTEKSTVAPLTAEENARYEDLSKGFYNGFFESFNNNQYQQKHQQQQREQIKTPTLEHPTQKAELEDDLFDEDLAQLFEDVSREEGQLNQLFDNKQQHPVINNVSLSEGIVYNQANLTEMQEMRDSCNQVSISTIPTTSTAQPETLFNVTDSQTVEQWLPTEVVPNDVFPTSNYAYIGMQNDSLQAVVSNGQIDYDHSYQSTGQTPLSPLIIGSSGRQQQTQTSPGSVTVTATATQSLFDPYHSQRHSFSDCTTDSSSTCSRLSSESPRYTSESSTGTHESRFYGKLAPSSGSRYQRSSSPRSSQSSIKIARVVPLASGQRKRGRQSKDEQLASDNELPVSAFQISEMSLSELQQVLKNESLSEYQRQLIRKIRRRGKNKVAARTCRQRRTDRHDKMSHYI
The assay is classed as functional.

For assay [4], the system named is HEK293. The assay is described as follows: cells. The settings on record: Homo sapiens. The source holds these as a separate data set.
Assay [5] addresses Beta-2 adrenergic receptor (Homo sapiens, UniProt P07550). The assay is described as follows: ADRB2 activation measured by internalization – cell-based, FAP fluorogen, flow cytometry, cherry pick 1, dose response (AID 588763). The assay is classed as functional.
Assay [6] can be described thus: blockers of HIV-1 envelope-mediated cell-cell fusion – cherry-pick, dose response (AID 652057). The assay is classed as functional, cell-based.
Assay [7] in a line: HIV-1 AD8 envelope cell-cell fusion blockers – cherry-pick, dose response (AID 652062).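 Note: luciferase signal from cell-cell fusion driven by HIV-1 clade B AD8 Env; potency is for inhibitors of fusion seen as a drop in luminescence.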 The assay is classed as functional, cell-based.
The nature of assay [8]: blockers of HIV-1 ZM109 envelope-driven cell-cell fusion – HeLa effector, CEM target cells, luciferase, cherry-pick, dose response (AID 652058).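 Note: luciferase signal from HIV-1 Env mediated cell-cell fusion of effector and target cells.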 The class given is functional, cell-based.
The nature of assay [9]: NIH3T3 cell viability loss – ATP luminescence, mouse fibroblasts, counter-screen, dose response (AID 2010).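 Note: cells exposed to compound for about 90 hours before reading.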 The assay is classed as functional, cell-based.
A short description of assay [10]: Trypanosoma cruzi growth suppression in host cells – NIH3T3 host cells, beta-gal luminescence, confirmation (AID 2044).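 Note: intracellular parasites grown in NIH/3T3 mouse fibroblasts as host cells; luminescent beta-galactosidase reporter signal from transgenic T. cruzi replicating inside host cells; inhibitors lower the luminescence signal.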 The assay is classed as functional, cell-based.
Assay [11] is described as follows: viability loss in CEM21 cells – cell-based, CellTiter-Glo luminescence, cherry-picked, cytotoxicity control for viral fusion inhibitor project, dose response (AID 652042).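 Note: potency for signal decrease meaning cytotoxicity.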 The class given is functional.
A short description of assay [12]: off-target signal loss in HeLa-CEM21 co-culture – HeLa F-luc CTL cells, cherry-picked, counter-screen for HIV-1 Env fusion inhibitor project, dose response (AID 652040).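 Note: potency for signal decrease marking cytotoxic or nonspecific inhibition.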 The assay is classed as functional, cell-based.
The test system of another assay is H4. The assay is described as follows: Luminescence Cell-Based Dose Response HTS to Identify Activators of 5'UTR Stem-Loop Driven Prion Protein mRNA Translation in H4 Neuroglioblastoma Cells. [Related pubchem assays: 1829 (Project Summary), 1814 (Primary HTS)]. The assay is classed as functional. The settings on record: Homo sapiens.
Assay [13] is described as follows: Luminescence Cell-Based Dose Confirmation HTS to Identify Activators of 5'UTR Stem-Loop Driven Alpha-Synuclein mRNA Translation in H4 Neuroglioblastoma Cells. [Related pubchem assays: 1829 (Project Summary), 1814 (Primary HTS)]. The class given is functional.
A short description of assay [14]: Luminescence Cell-Based Dose Response HTS to Identify Activators of Luciferase Translation or Activity in H4 […] Cells. [Related pubchem assays: 1829 (Project Summary), 1814 (Primary HTS)]. The class given is functional.
Assay [15] in a line: viability of PTEN-deleted HCT116 cells – cell-based, HCT116 PTEN knockout, dose response (AID 1047).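 Note: HCT116 colon tumor cells with PTEN knocked out; cells exposed to compound for 60 hours before readout.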 The assay is classed as functional.
Assay [16] relates to Vero. The assay is described as follows: cells. The class given is functional, cell-based. The note with it: Chlorocebus sabaeus.
In assay [17] the test system is Vero. The assay is described as follows: cells. The assay is classed as functional. The note with it: Chlorocebus sabaeus.
Assay [18] in a line: viability of HCT116 lacking mutant beta-catenin – cell-based, human colon tumor, dose response (AID 1045).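 Note: HCT116 colon tumor cells with beta catenin knocked out; cells exposed to compound for 60 hours.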 The assay is classed as functional.
In assay [19] the target is T2, Microphthalmia-associated transcription factor (Homo sapiens, UniProt O75030).
T2 sequence (O75030 whole entry): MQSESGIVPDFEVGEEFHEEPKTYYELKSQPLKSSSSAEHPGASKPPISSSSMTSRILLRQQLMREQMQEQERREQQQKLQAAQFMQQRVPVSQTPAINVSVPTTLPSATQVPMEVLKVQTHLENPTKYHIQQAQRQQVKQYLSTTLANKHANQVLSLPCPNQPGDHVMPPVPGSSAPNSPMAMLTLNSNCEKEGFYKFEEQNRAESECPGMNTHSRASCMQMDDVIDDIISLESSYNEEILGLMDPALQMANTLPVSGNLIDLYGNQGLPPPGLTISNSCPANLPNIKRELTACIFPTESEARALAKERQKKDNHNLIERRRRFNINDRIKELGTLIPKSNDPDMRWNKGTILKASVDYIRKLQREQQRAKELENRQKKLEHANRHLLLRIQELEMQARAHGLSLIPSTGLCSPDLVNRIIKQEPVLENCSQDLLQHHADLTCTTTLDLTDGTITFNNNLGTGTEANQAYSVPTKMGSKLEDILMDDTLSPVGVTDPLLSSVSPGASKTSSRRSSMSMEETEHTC
The assay is described as follows: reducers of TRPM1 reporter luminescence, concentration series – cell-based, SK-MEL-5, cherry-picked, set 3, MITF inhibitor project, dose response (AID 493073).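 Note: SK-MEL-5 melanoma cells with luciferase driven by the MITF target TRPM1 promoter.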 The class given is functional.

A further assay has as its system CHO. As to the kind of experiment: CHO cell viability loss, potency – luminescence, cytotoxicity control for TLR9-MyD88 binding inhibitor project, dose response (AID 588339).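 Note: CHO cells stably coexpressing TLR9 and MyD88 fusions from primary screen; compound exposure lasted 48 hours before viability readout.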 The assay is classed as functional, cell-based, hamster. The settings on record: Cricetulus griseus.
The nature of assay [20]: Luminescence Cell-Based Dose Retest to Confirm Inhibitors of Cancer Stem Cells. [Related pubchem assays (depositor defined):AID2717, AID2721]. The assay is classed as functional. The settings on record: Homo sapiens.
Assay [21] in a line: Fluorescence-based cell-based high throughput dose response assay for inhibitors of the interaction of nucleotide-binding oligomerization domain containing 2 (NOD2) and the receptor-interacting serine-threonine kinase 2 (RIPK2). The class given is functional. The note with it: Homo sapiens.
Assay [22] can be described thus: Counterscreen for AddAB inhibitors: absorbance-based bacterial cell-based high throughput dose response assay for inhibitors of bacterial viability. [Related pubchem assays (depositor defined):AID435030, AID449728, AID449731, AID488942, AID488955, AID488956]. The assay is classed as functional.

Sequence of Beta-2 adrenergic receptor (P07550 whole entry, the tested form may be a part): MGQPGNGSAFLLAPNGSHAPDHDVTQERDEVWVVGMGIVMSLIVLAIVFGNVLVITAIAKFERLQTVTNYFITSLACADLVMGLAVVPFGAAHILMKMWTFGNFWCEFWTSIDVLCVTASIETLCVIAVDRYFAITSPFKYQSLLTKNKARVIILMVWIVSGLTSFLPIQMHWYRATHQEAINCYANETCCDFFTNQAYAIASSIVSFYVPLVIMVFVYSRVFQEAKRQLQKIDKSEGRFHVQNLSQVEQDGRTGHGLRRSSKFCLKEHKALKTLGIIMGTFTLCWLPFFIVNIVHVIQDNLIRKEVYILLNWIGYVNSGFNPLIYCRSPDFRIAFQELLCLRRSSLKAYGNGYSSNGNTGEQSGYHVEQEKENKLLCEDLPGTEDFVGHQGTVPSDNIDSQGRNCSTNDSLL

Regarding `O=C(NCCN1CCCCC1)Nc1ccc([N+](=O)[O-])cc1`, the IC50 (in assay [1]; in the assay on HEK293 [2]) was > 67.5 µM (inactive) in each case.

Regarding `COc1ccccc1CN(Cc1cc2c(C)ccc(C)c2nc1O)Cc1nnnn1Cc1ccco1`, the EC50 in the assay on HEK293 [3] and with HEK293 [4] was > 59.6 µM (inactive) each time. Besides, the IC50 on Protein skinhead-1 is > 100 µM (inactive).

For `CC(=O)Nc1ccc(S(=O)(=O)NCCc2csc(-c3cccnc3)n2)cc1`, in assay [5], the EC50 was 0.162 µM (active).

With `CCN(CC(O)CON=C1c2ccccc2-c2ccccc21)S(=O)(=O)c1ccc(C)cc1` (stereo not given), the AC50 in [6] is 2.96 µM (active); in assay [7], 2.44 µM (active); in assay [8], 2.97 µM (active); in assay [11] it was 41.7 µM (active); in assay [12], 4.5 µM (active). Besides, the EC50 in the assay on HEK293 [3] was > 59.6 µM (inactive); in assay [9], > 60 µM (not active); in assay [10], 1.68 µM (active); in the assay on HEK293 [4], > 59.6 µM (inactive).

With `Cc1ccccc1OCC(=O)Nc1ccc2c(c1)OCCO2`, the EC50 was 75.2 µM (active) with H4, 51.8 µM (active) in [13] and 4.75 µM (active) in assay [14]. The IC50 (in assay [1]; in the assay with HEK293 [2]) was > 67.5 µM (inactive) in each case.

For `Cc1ccccc1Cn1c(=N)n(CC(=O)c2ccc([N+](=O)[O-])cc2)c2ccccc21`, the EC50 in [15] is 9.32 µM (active); in assay [5], 15.2 µM (inactive); in assay [18] it was 8.1 µM (active). The IC50 with Vero [16] was > 25 µM (active). The CC50 in the assay with Vero [17] is 14 µM (active). Further, the AC50 in assay [19] was 5.63 µM (active).

Consider `C=CCn1c(O)nnc1Sc1ncc([N+](=O)[O-])s1`, for which the IC50 in the assay with CHO is 1.99 µM (active); in [21], 1.32 µM (active); in assay [22] it was 21.7 µM (inactive). Also, the half-maximal activity concentration (AC50) in assay [20] was 1.85 µM (active).
